# Legend:
# [1] = tested on: K562 (BCR-ABL+) cells; assay: CCK-8 proliferation inhibition, K562 cells; type: cell-based, human; conditions: Homo sapiens, K562, 48 h, CCK-8, 48 hours of drug treatment; read-out: Proliferative inhibitory activity (IC50, nM) K562 (BCR-ABL+);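 also: Ten-point threefold dilution series starting at 10 µM, absorbance at 450 nm after 2 h with CCK-8, DMSO as negative control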
# [2] = tested on: U937 (BCR-ABL-) cells; assay: CCK-8 proliferation inhibition, U937 cells; type: cell-based, human; conditions: Homo sapiens, U-937; CCK-8, 48 hours of drug treatment, highest concentration 10 μM; read-out: Proliferative inhibitory activity (IC50, nM) U937 (BCR-ABL-);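 also: Ten-point threefold dilution series, absorbance at 450 nm after 2 h with CCK-8 reagent, DMSO as negative control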
# [3] = target: BCR-ABL protein (Homo sapiens, UniProt P00519); assay: Western blot degradation of BCR-ABL in K562 cells; type: cell-based; set-up: Western blot was used to detect the expression of BCR-ABL and c-ABL protein in K562 cells; BCR (fusion partner, P11274); endogenous in cells; host or cells: K562; the other entry of the earlier key: BCR (P11274, Breakpoint cluster region protein); conditions: 16 hours, 1 nM-10 μM
# Protocol: (§1) (1) Cell seed: K562 cells were added to the 24 well plates, with a cell density of 3×10^5/ml and a total volume of 1.5 ml; Five concentration gradients, 1 nm, 10 nm, 100 nm, 1 μM, and 10 μM, were respectively set for PROTAD series compounds and comparative examples compounds (Dasa-6-2-2-6-VHL, Dasa-6-2-6-CRBN). […] After 16 hours of drug treatment, the cells were collected in 1.5 ml ep tube, centrifuged at 3000 rpm for 3 minutes, and then added 30 μL PBS and 30 ul 2×SDS to cell precipitated, lysate Heat at 100° C. for 5 minutes, then place on ice for 5 minutes, centrifuged at 10000 rpm for 5 minutes, and take the supernatant as the total protein extracted. The protein concentration was determined by the Bradford method. After each sample was at the same concentration, bromophenol blue was added as the sample indicator.
# (§2) (2) Electrophoresis: the starting voltage of the BioRad electrophoresis instrument was 80V, and as the dye enters the separation gel, the voltage was adjusted to 120V;
# (§3) (3) Film transfer: prepare filter paper and nitrocellulose membrane with the corresponding size of the gel, filter paper, and NC film were soaked in transfer electrophoresis buffer.
# (§4) DC50 (concentration required to degrade protein by half) were calculated based on the intensity from western blot, and data were analyzed via Prism GraphPad with non-linear regression.
# [4] = tested on: HEK293 (BCR-ABL-) cells; assay: CCK-8 proliferation inhibition, HEK293 cells; conditions: Homo sapiens, HEK293, 48 h, read-out: Proliferative inhibitory activity (IC50, nM) HEK293 (BCR-ABL-);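 also: Ten-point threefold dilution series starting at 10 µM, CCK-8 absorbance at 450 nm read after 2 h reagent incubation, DMSO-treated cells as negative control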
# [5] = target: c-ABL protein (Homo sapiens, UniProt P00519); assay: Western blot degradation of c-ABL in K562 cells; type: cell-based; set-up: Western blot was used to detect the expression of BCR-ABL and c-ABL protein in K562 cells; endogenous in cells; host or cells: K562; conditions: 16 hours, 1 nM-10 μM
# Protocol: as §1, §2, §3, §4
# Sequence of c-ABL protein (P00519 whole entry): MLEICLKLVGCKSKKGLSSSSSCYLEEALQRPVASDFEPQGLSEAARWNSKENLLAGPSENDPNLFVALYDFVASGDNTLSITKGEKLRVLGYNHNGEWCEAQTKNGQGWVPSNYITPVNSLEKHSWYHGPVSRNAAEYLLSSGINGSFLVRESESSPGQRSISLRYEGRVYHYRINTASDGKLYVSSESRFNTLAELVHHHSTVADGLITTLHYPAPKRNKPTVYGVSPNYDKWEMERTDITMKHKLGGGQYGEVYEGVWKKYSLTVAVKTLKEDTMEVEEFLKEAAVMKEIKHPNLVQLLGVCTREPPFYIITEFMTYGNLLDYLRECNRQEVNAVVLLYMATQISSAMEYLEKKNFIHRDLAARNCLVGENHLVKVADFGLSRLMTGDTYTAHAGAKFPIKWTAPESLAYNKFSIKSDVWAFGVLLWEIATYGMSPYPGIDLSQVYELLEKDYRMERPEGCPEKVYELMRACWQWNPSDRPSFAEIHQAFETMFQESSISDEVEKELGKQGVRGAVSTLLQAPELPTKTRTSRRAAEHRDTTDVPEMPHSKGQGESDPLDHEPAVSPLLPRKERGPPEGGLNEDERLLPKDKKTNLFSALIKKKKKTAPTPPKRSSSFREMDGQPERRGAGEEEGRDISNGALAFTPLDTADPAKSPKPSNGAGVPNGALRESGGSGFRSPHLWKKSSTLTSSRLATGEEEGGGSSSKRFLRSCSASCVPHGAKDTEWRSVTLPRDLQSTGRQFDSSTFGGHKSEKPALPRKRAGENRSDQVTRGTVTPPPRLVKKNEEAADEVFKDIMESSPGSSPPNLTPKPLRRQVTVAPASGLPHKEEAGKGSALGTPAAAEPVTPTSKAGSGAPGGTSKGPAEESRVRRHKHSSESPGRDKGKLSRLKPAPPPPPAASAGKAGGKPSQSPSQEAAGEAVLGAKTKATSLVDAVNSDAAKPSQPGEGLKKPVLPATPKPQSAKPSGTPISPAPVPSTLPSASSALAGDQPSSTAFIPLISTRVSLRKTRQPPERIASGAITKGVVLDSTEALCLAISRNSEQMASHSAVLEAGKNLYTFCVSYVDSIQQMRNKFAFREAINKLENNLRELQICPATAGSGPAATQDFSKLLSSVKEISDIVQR
# Sequence of BCR-ABL protein (P00519 with tags, fused parts or gaps): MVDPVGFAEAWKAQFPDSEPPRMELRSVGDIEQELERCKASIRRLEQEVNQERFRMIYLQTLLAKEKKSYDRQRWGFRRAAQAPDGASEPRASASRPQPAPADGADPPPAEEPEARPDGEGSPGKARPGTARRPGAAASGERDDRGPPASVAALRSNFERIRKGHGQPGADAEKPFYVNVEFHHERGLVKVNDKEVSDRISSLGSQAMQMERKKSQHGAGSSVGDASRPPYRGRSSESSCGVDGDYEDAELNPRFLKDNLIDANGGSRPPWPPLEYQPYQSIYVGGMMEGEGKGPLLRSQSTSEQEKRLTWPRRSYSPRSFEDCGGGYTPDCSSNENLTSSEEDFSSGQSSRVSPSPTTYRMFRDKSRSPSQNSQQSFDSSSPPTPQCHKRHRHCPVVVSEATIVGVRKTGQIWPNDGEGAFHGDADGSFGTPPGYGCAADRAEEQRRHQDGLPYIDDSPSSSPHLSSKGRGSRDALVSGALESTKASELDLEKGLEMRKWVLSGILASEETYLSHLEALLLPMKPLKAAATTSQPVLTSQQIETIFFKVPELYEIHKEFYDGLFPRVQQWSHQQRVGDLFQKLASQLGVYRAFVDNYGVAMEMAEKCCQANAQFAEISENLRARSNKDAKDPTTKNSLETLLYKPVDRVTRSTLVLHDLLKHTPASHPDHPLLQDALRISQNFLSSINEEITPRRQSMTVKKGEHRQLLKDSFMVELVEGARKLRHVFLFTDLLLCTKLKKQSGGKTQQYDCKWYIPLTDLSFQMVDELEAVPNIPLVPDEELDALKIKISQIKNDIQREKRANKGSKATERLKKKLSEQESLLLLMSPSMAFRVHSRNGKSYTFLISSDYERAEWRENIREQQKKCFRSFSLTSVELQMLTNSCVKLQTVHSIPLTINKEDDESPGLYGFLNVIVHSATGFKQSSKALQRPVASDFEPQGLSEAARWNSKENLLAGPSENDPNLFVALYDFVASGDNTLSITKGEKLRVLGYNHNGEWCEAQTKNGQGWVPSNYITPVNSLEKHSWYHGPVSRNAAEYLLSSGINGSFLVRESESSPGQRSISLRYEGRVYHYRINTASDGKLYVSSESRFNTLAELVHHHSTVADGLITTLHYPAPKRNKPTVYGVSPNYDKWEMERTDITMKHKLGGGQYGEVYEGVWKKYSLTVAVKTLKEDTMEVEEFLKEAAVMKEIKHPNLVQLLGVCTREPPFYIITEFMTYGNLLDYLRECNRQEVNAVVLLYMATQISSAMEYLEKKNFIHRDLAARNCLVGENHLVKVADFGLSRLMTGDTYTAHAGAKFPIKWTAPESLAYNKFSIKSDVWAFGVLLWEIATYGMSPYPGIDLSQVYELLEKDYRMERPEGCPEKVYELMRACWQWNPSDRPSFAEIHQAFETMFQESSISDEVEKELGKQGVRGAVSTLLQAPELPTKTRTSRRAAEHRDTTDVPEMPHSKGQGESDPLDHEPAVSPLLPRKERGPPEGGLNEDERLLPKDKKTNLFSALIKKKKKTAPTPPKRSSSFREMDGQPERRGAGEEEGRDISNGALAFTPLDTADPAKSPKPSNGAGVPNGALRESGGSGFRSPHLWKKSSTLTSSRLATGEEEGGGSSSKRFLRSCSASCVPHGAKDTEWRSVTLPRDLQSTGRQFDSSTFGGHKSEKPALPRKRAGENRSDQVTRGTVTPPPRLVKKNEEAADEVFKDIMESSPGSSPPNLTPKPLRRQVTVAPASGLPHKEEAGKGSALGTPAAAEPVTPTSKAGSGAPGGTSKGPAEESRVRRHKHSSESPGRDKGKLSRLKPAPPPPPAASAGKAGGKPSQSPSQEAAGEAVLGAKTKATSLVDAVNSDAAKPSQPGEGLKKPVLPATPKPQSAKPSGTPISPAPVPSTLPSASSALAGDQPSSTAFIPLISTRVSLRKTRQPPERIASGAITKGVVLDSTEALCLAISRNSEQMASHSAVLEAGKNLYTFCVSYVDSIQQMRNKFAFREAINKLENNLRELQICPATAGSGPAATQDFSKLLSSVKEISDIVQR
SMILES,IC50 [1],IC50 [2],DC50 [3],DC50 [5],IC50 [4]
"COc1cc(Nc2c(C#N)cnc3cc(OCCCN4CCN(C(=O)CCOCCOCCOCCOCCNc5cccc6c5C(=O)N(C5CCC(=O)NC5=O)C6=O)CC4)c(OC)cc23)c(Cl)cc1Cl (centres unmarked) [SIAIS151160, 4-((2,4-dichloro-5-methoxyphenyl)amino)-7-(3-(4-(1-((2-(2,6-dioxopiperidin-3-yl)-1,3-dioxoisoindolin-4-yl)amino)-3,6,9,12-tetraoxapentadecan-15-oyl)piperazin-1-yl)propoxy)-6-methoxyquinoline-3-carbonitrile]",4650 nM,> 10000 nM,10 to 100 nM,10 to 100 nM,> 10000 nM
"COc1cc(Nc2c(C#N)cnc3cc(OCCCN4CCN(C(=O)CCCCCNc5cccc6c5C(=O)N(C5CCC(=O)NC5=O)C6=O)CC4)c(OC)cc23)c(Cl)cc1Cl (centres unmarked) [SIAIS151166, 4-((2,4-dichloro-5-methoxyphenyl)amino)-7-(3-(4-(6-((2-(2,6-dioxopiperidin-3-yl)-1,3-dioxoisoindolin-4-yl)amino)hexanoyl)piperazin-1-yl)propoxy)-6-methoxyquinoline-3-carbonitrile]",894 nM,> 10000 nM,10 to 100 nM,10 to 100 nM,> 10000 nM
"Cc1nc(Nc2ncc(C(=O)Nc3c(C)cccc3Cl)s2)cc(N2CCN(C(=O)CCOCCOCCOCCNc3cccc4c3C(=O)N(C3CCC(=O)NC3=O)C4=O)CC2)n1 (centres unmarked) [SIAIS151067, N-(2-chloro-6-methylphenyl)-2-((6-(4-(3-(2-(2-(2-((2-(2,6-dioxopiperidin-3-yl)-1,3-dioxoisoindolin-4-yl)amino)ethoxy)ethoxy)ethoxy)propanoyl)piperazin-1-yl)-2-methylpyrimidin-4-yl)amino)thiazole-5-carboxamide]",14.8 nM,> 10000 nM,1 to 10 nM,10 to 100 nM,> 10000 nM
"Cc1nc(Nc2ncc(C(=O)Nc3c(C)cccc3Cl)s2)cc(N2CCN(C(=O)CCCC(=O)N[C@H](C(=O)N3C[C@H](O)C[C@H]3C(=O)NCc3ccc(-c4scnc4C)cc3)C(C)(C)C)CC2)n1 [SIAIS151175, N-(2-chloro-6-methylphenyl)-2-((6-(4-(5-(((S)-1-((2S,4R)-4-hydroxy-2-((4-(4-methylthiazol-5-yl)benzyl)carbamoyl)pyrrolidin-1-yl)-3,3-dimethyl-1-oxobutan-2-yl)amino)-5-oxopentanoyl)piperazin-1-yl)-2-methylpyrimidin-4-yl)amino)thiazole-5-carboxamide]",87 nM,> 10000 nM,10 to 100 nM,100 to 1000 nM,3890 nM
"Cc1nc(Nc2ncc(C(=O)Nc3c(C)cccc3Cl)s2)cc(N2CCN(C(=O)CCCCCCCC(=O)N[C@H](C(=O)N3C[C@H](O)C[C@H]3C(=O)NCc3ccc(-c4scnc4C)cc3)C(C)(C)C)CC2)n1 [SIAIS151179, N-(2-chloro-6-methylphenyl)-2-((6-(4-(9-(((S)-1-((2S,4R)-4-hydroxy-2-((4-(4-methylthiazol-5-yl)benzyl)carbamoyl)pyrrolidin-1-yl)-3,3-dimethyl-1-oxobutan-2-yl)amino)-9-oxononanoyl)piperazin-1-yl)-2-methylpyrimidin-4-yl)amino)thiazole-5-carboxamide]",22.4 nM,> 10000 nM,10 to 100 nM,100 to 1000 nM,> 10000 nM
"COc1cc(Nc2c(C#N)cnc3cc(OCCCN4CCN(C(=O)CCC(=O)Nc5cccc6c5CN(C5CCC(=O)NC5=O)C6=O)CC4)c(OC)cc23)c(Cl)cc1Cl (centres unmarked) [SIAIS164105, 4-(4-(3-((3-cyano-4-((2,4-dichloro-5-methoxyphenyl)amino)-6-methoxyquinolin-7-yl)oxy)propyl)piperazin-1-yl)-N-(2-(2,6-dioxopiperidin-3-yl)-1-oxoisoindolin-4-yl)-4-oxobutanamide]",459 nM,> 10000 nM,10 to 100 nM,10 to 100 nM,> 10000 nM
"Cc1nc(Nc2ncc(C(=O)Nc3c(C)cccc3Cl)s2)cc(N2CCN(C(=O)CCOCCOCCOCCOCCOCCNc3cccc4c3C(=O)N(C3CCC(=O)NC3=O)C4=O)CC2)n1 (centres unmarked) [SIAIS151069, N-(2-chloro-6-methylphenyl)-2-((6-(4-(1-((2-(2,6-dioxopiperidin-3-yl)-1,3-dioxoisoindolin-4-yl)amino)-3,6,9,12,15-pentaoxaoctadecan-18-oyl)piperazin-1-yl)-2-methylpyrimidin-4-yl)amino)thiazole-5-carboxamide]",31.9 nM,> 10000 nM,1 to 10 nM,10 to 100 nM,> 10000 nM
"Cc1nc(Nc2ncc(C(=O)Nc3c(C)cccc3Cl)s2)cc(N2CCN(C(=O)CCCC(=O)Nc3cccc4c3C(=O)N(C3CCC(=O)NC3=O)C4=O)CC2)n1 (centres unmarked) [SIAIS184053, N-(2-chloro-6-methylphenyl)-2-((6-(4-(5-((2-(2,6-dioxopiperidin-3-yl)-1,3-dioxoisoindolin-4-yl)amino)-5-oxopentanoyl)piperazin-1-yl)-2-methylpyrimidin-4-yl)amino)thiazole-5-carboxamide]",16.5 nM,> 10000 nM,10 to 100 nM,10 to 100 nM,> 10000 nM

# These reach a lower IC50 [1]. Values come first.
IC50 [1],IC50 [2],DC50 [3],DC50 [5],SMILES,IC50 [4]
14.3 nM,> 10000 nM,1 to 10 nM,10 to 100 nM,"Cc1nc(Nc2ncc(C(=O)Nc3c(C)cccc3Cl)s2)cc(N2CCN(C(=O)CCCCCCCCC(=O)N[C@H](C(=O)N3C[C@H](O)C[C@H]3C(=O)NCc3ccc(-c4scnc4C)cc3)C(C)(C)C)CC2)n1 [SIAIS151180, N-(2-chloro-6-methylphenyl)-2-((6-(4-(10-(((S)-1-((2S,4R)-4-hydroxy-2-((4-(4-methylthiazol-5-yl)benzyl)carbamoyl)pyrrolidin-1-yl)-3,3-dimethyl-1-oxobutan-2-yl)amino)-10-oxodecanoyl)piperazin-1-yl)-2-methylpyrimidin-4-yl)amino)thiazole-5-carboxamide]",> 10000 nM
8.05 nM,> 10000 nM,1 to 10 nM,10 to 100 nM,"Cc1nc(Nc2ncc(C(=O)Nc3c(C)cccc3Cl)s2)cc(N2CCN(C(=O)CCOCCOCCNc3cccc4c3C(=O)N(C3CCC(=O)NC3=O)C4=O)CC2)n1 (centres unmarked) [SIAIS151064, N-(2-chloro-6-methylphenyl)-2-((6-(4-(3-(2-(2-((2-(2,6-dioxopiperidin-3-yl)-1,3-dioxoisoindolin-4-yl)amino)ethoxy)ethoxy)propanoyl)piperazin-1-yl)-2-methylpyrimidin-4-yl)amino)thiazole-5-carboxamide]",> 10000 nM
1.03 nM,> 10000 nM,10 to 100 nM,10 to 100 nM,"Cc1nc(Nc2ncc(C(=O)Nc3c(C)cccc3Cl)s2)cc(N2CCN(C(=O)CCCC(=O)Nc3cccc4c3CN(C3CCC(=O)NC3=O)C4=O)CC2)n1 (centres unmarked) [SIAIS164110, N-(2-chloro-6-methylphenyl)-2-((6-(4-(5-((2-(2,6-dioxopiperidin-3-yl)-1-oxoisoindolin-4-yl)amino)-5-oxopentanoyl)piperazin-1-yl)-2-methylpyrimidin-4-yl)amino)thiazole-5-carboxamide]",> 10000 nM
0.55 nM,> 10000 nM,< 1 nM,1 to 10 nM,"Cc1nc(Nc2ncc(C(=O)Nc3c(C)cccc3Cl)s2)cc(N2CCN(C(=O)CCCCNc3cccc4c3C(=O)N(C3CCC(=O)NC3=O)C4=O)CC2)n1 (centres unmarked) [SIAIS151071, N-(2-chloro-6-methylphenyl)-2-((6-(4-(5-((2-(2,6-dioxopiperidin-3-yl)-1,3-dioxoisoindolin-4-yl)amino)pentanoyl)piperazin-1-yl)-2-methylpyrimidin-4-yl)amino)thiazole-5-carboxamide]",> 10000 nM
0.03 nM,> 10000 nM,1 to 10 nM,1 to 10 nM,"Cc1nc(Nc2ncc(C(=O)Nc3c(C)cccc3Cl)s2)cc(N2CCN(C(=O)CCCCCNc3cccc4c3C(=O)N(C3CCC(=O)NC3=O)C4=O)CC2)n1 (centres unmarked) [SIAIS151075, N-(2-chloro-6-methylphenyl)-2-((6-(4-(6-((2-(2,6-dioxopiperidin-3-yl)-1,3-dioxoisoindolin-4-yl)amino)hexanoyl)piperazin-1-yl)-2-methylpyrimidin-4-yl)amino)thiazole-5-carboxamide]",> 10000 nM

# Reference: patent publication US11639343B2, “Compounds targeting and degrading BCR-ABL protein and its antitumor application” (ShanghaiTech University, priority 2019, dated 2023)
